Where two headings read alike, the source gives them in different places.

Experiment [1] concerns the target T1, HIV-1 protease (Q7S mutant form) (Human immunodeficiency virus type 1 group M subtype B, UniProt P04585, Q495S).
T1 construct: made in house
The experiment in a line: HIV-1 Protease RET assay. It counts as biochemical. The note with it: Ave. Ki (nM), RET assay, Q7S enzyme, Morrison tight binding fit. A digest of the protocol: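 Ki values fitted with the Morrison tight-binding equation from steady-state RET cleavage (ex 340, em 490 nm) of 5 μM RE(EDANS)SQNYPIVQK(DABCYL)R. Buffer pH 4.8 acetate, 1M NaCl, 5 mM DTT, 1 mg/ml BSA, 10% DMSO; 2 nM Q7S mutant dimer, 37 °C, 12 min.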

For experiment [2], the system named is HIV-1 (HIV-1 RF, HIV-1 NL4-3) in CEM-SS / MT-2 cells. The experiment in a line: Cytopathic effect (CPE) inhibition assay (XTT/MTT dye reduction). In kind it is cell-based. In outline: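 Readout is XTT reduction (A450, 4 h) after six days of culturing virus-infected (moi 0.025–0.819) or mock-infected CEM-SS/MT-2 cells, 2×10^4 per well, with half-log compound series. Antiviral EC50 and cytotoxic CC50 are relative to uninfected compound-free cells. Therapeutic index is CC50 divided by EC50.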
(In general: Cytopathic effects are the visible damage that an infection or toxin causes in cultured cells.)

In experiment [3] the test system is HIV-1 NL4-3 or HIV-1 NL4-3(I84V/L90M). Description: Susceptibility assay, p24 ELISA in infected MT-2 cells. It counts as cell-based. The note with it: Human immunodeficiency virus 1, NL43, MT2, read-out: EC50 or IC50 (mM), values without asterisk (EC50). As to the method: T-cell lines, CEM-SS, and MT-2, and viruses HIV-1 RF and HIV-1 NL4-3 (pNL4-3) were obtained from the National Institutes of Health (AIDS Research and Reference Reagent Program, Bethesda, Md.).
Compounds were tested in phenotypic susceptibility assays at Virologic, Inc., (See Petropoulos C. J., Parkin N. T., Limoli K. L., Lie Y. S., Wrin T., Huang W., Tian H., Smith D., Winslow G. A., Capon D J, Whitcomb J M. 2000, “A novel phenotypic drug susceptibility assay for human immunodeficiency virus type 1,” Antimicrob Agents Chemother 44(4):920–928) or using the assay described here. MT-2 cells were infected with either HIV-1 NL4-3 or HIV-1 NL4-3([…]) and incubated in the presence of serial 0.5 log dilutions of test compounds. Three days later, culture supernatants were collected and virus production, as determined by p24 ELISA, was assayed. Percent inhibition was calculated as p24 concentration in compound-treated samples as compared to infected, compound-free controls. Inhibition of viral replication is determined by measuring reduction in HIV p24 present in the culture supernatant, using a Beckman-Coulter p24HIV-1 Ag EIA kit and following the supplied protocol. Absorbance is read on a MRX microplate reader (Dynex Technologies). The EC50 was calculated as the concentration of compound that effected a decrease in the p24 production by infected, compound-treated cells to 50% of that produced by infected, compound-free cells.
For orientation: ELISA stands for enzyme-linked immunosorbent assay.

[4] abbreviates: Human immunodeficiency virus 1, NL43, read-out: Ave CPE EC50.
Where [5] appears, read: Human immunodeficiency virus 1, NL43, read-out: Ave CPE EC50 (mM).

By Ki is commonly meant a dissociation constant, usually derived from enzyme kinetics or from competition with a known ligand. A high value points to a looser hold on the target. For orientation: EC50 means the concentration needed to bring the measured effect to its halfway point. In experiment [1], `C=CCOC(=O)N[C@@H](Cc1ccccc1)[C@H](O)C(=O)N1CSC(C)(C)[C@H]1C(=O)NCc1ccccc1C` [Example B11, {(1S,2S)-1-Benzyl-3-[(R)-5,5-dimethyl-4-(2-methyl-benzylcarbamoyl)-thiazolidin-3-yl]-2-hydroxy-3-oxo-propyl}-carbamic acid allyl ester] yielded a Ki of 0.86 nM. The EC50 was determined as 567 nM in experiment [2] (setting [4]) and 2020 nM in experiment [3].
For `Cc1ccccc1CNC(=O)[C@H]1N(C(=O)[C@@H](O)[C@H](Cc2ccccc2)NC(=O)CC(F)(F)F)CSC1(C)C` [Example B19, (R)-3-[(2S,3S)-2-Hydroxy-4-phenyl-3-(3,3,3-trifluoropropionylamino)-butyryl]-5,5-dimethyl-thiazolidine-4-carboxylic acid 2-methyl-benzylamide] the same measures were 1.4 nM, 1600 nM and 1300 nM.
Regarding `Cc1ccccc1CNC(=O)[C@H]1N(C(=O)[C@@H](O)[C@H](Cc2ccccc2)NC(=O)COc2c(Cl)cccc2Cl)CSC1(C)C` [Example B77, (R)-3-{(2S,3S)-3-[2-(2,6-Dichloro-phenoxy)-acetylamino]-2-hydroxy-4-phenyl-butyryl}-5,5-dimethyl-thiazolidine-4-carboxylic acid 2-methyl-benzylamide], the Ki in experiment [1] was < 0.1 nM. Besides, the results for the EC50 in experiment [2] (setting [4]) and in experiment [3] were 143 nM and 1630 nM, respectively.
In turn, `Cc1ccccc1C(=O)N[C@@H](Cc1ccccc1)[C@H](O)C(=O)N1CSC(C)(C)[C@H]1C(=O)N[C@@H]1C=CCCC1` [Example B80, (R)-3-{(2S,3S)-2-Hydroxy-4-phenyl-3-[(1-o-tolyl-methanoyl)-amino]-butanoyl}-5,5-dimethyl-thiazolidine-4-carboxylic acid (S)-cyclohex-2-enylamide] registered a Ki in experiment [1] of 0.15 nM. Moreover, the EC50 came out at 419 nM in experiment [2] (setting [4]) and 1380 nM in experiment [3].
The matching figures for `Cc1c(O)cccc1C(=O)N[C@@H](Cc1ccccc1)[C@H](O)C(=O)N1CSC2(CCCC2)[C@H]1C(=O)N[C@H]1CCc2ccccc21` [Example B83, (R)-3-((2S,3S)-2-Hydroxy-3-{[1-(3-hydroxy-2-methyl-phenyl)-methanoyl]-amino}-4-phenyl-butanoyl)-1-thia-3-aza-spiro[4.4]nonane-4-carboxylic acid (S)-indan-1-ylamide]: < 0.1 nM, 9 nM and 202 nM.
The matching figures for `Cc1c(O)cccc1C(=O)N[C@@H](Cc1ccccc1)[C@H](O)C(=O)N1CSC2(CCCCC2)[C@H]1C(=O)N[C@@H]1C=CCCC1` [Example B84, (R)-3-((2S,3S)-2-Hydroxy-3-{[1-(3-hydroxy-2-methyl-phenyl)-methanoyl]-amino}-4-phenyl-butanoyl)-1-thia-3-aza-spiro[4.5]decane-4-carboxylic acid (S)-cyclohex-2-enylamide]: < 0.1 nM, 9 nM and 686 nM.
In experiment [1], `Cc1ccccc1CNC(=O)[C@@H]1CC(F)(F)CN1C(=O)[C@@H](O)[C@H](Cc1ccccc1)NC(=O)c1cccc(O)c1C` [Example C1, (S)-4,4-Difluoro-1-[(2S,3S)-2-hydroxy-3-(3-hydroxy-2-methyl-benzoylamino)-4-phenyl-butyryl]-pyrrolidine-2-carboxylic acid 2-methyl-benzylamide] had an inhibition constant (Ki) of 0.38 nM. The EC50 was found to be 627 nM in experiment [2] (setting [5]) and 427 nM in experiment [3].
The compound `Cc1c(O)cccc1C(=O)N[C@@H](Cc1ccccc1)[C@H](O)C(=O)N1CC(F)(F)C[C@H]1C(=O)N[C@@H]1C=CCCC1` [Example C4, (S)-4,4-Difluoro-1-((2S,3S)-2-hydroxy-3-{[1-(3-hydroxy-2-methyl-phenyl)-methanoyl]-amino}-4-phenyl-butanoyl)-pyrrolidine-2-carboxylic acid (S)-cyclohex-2-enylamide] came in with a Ki in experiment [1] of 0.17 nM. Further, the EC50 in experiment [2] (setting [4]) turned out to be 236 nM; in experiment [3], 1900 nM.
The matching figures for `Cc1c(F)cccc1CNC(=O)[C@@H]1CC(F)(F)CN1C(=O)[C@@H](O)[C@H](Cc1ccccc1)NC(=O)c1cccc(O)c1C` [Example C5, (S)-4,4-Difluoro-1-((2S,3S)-2-hydroxy-3-{[1-(3-hydroxy-2-methyl-phenyl)-methanoyl]-amino}-4phenyl-butanoyl)-pyrrolidine-2-carboxylic acid 3-fluoro-2-methyl-benzylamide]: 0.6 nM, 669 nM and 1610 nM.
In experiment [1], `Cc1ccc(F)cc1CNC(=O)[C@@H]1CC(F)(F)CN1C(=O)[C@@H](O)[C@H](Cc1ccccc1)NC(=O)c1cccc(O)c1C` [Example C6, (S)-4,4-Difluoro-1-((2S,3S)-2-hydroxy-3-{[1-(3-hydroxy-2-methyl-phenyl)-methanoyl]-amino}-4-phenyl-butanoyl)-pyrrolidine-2-carboxylic acid 5-fluoro-2-methyl-benzylamide] had an inhibition constant (Ki) of 2.4 nM. Also, the EC50 in experiment [2] (setting [4]) stood at 744 nM; in experiment [3] it was 1940 nM.
The compound `C/C=C(\C)CNC(=O)[C@@H]1CC(F)(F)CN1C(=O)[C@@H](O)[C@H](Cc1ccccc1)NC(=O)c1cccc(O)c1C` [Example C8, (S)-4,4-Difluoro-1-((2S,3S)-2-hydroxy-3-{[1-(3-hydroxy-2-methyl-phenyl)-methanoyl]-amino}-4-phenyl-butanoyl)-pyrrolidine-2-carboxylic acid ((E)-2-methyl-but-2-enyl)-amide] displayed a Ki in experiment [1] of 1.5 nM. For the same compound, the EC50 came out at 152 nM in experiment [2] (setting [5]) and 1420 nM in experiment [3].
With `Cc1ccccc1CNC(=O)[C@H]1N(C(=O)[C@@H](O)[C@H](Cc2ccccc2)NC(=O)c2cccc(O)c2C)CC(F)(F)C1(C)C` [Example C15, (S)-4,4-Difluoro-1-[(2S,3S)-2-hydroxy-3-(3-hydroxy-2-methyl-benzoylamino)-4-phenyl-butyryl]-3,3-dimethyl-pyrrolidine-2-carboxylic acid 2-methyl-benzylamide], the Ki in experiment [1] is < 0.1 nM. Besides, the EC50 in experiment [2] (setting [4]) was 25 nM; in experiment [3], 57 nM.
For `Cc1c(O)cccc1C(=O)N[C@@H](Cc1ccccc1)[C@H](O)C(=O)N1CC(F)(F)C(C)(C)[C@H]1C(=O)N[C@H]1CCc2ccccc21` [Example C16, (S)-4,4-Difluoro-1-[(2S,3S)-2-hydroxy-3-(3-hydroxy-2-methyl-benzoylamino)-4-phenyl-butyryl]-3,3-dimethyl-pyrrolidine-2-carboxylic acid (S)-indan-1-ylamide] the same measures were < 0.1 nM, 19 nM and 201 nM.
For `C#CCNC(=O)[C@H]1N(C(=O)[C@@H](O)[C@H](Cc2ccccc2)NC(=O)c2cccc(O)c2C)CC(F)(F)C1(C)C` [Example C17, (S)-4,4-Difluoro-1-[(2S,3S)-2-hydroxy-3-(3-hydroxy-2-methyl-benzoylamino)-4-phenyl-butyryl]-3,3-dimethyl-pyrrolidine-2-carboxylic acid prop-2-ynylamide] the same measures were < 0.1 nM, 115 nM and 186 nM.
For `Cc1c(O)cccc1C(=O)N[C@@H](Cc1ccccc1)[C@H](O)C(=O)N1CC(F)(F)C(C)(C)[C@H]1C(=O)NCc1ccc(F)cc1Cl` [Example C18, (S)-4,4-Difluoro-1-((2S,3S)-2-hydroxy-3-{[1-(3-hydroxy-2-methyl-phenyl)-methanoyl]-amino}-4-phenyl-butanoyl)-3,3-dimethyl-pyrrolidine-2-carboxylic acid 2-chloro-4-fluoro-benzylamide] the same measures were < 0.1 nM, 148 nM and 618 nM.
With `CCCNC(=O)[C@H]1N(C(=O)[C@@H](O)[C@H](Cc2ccccc2)NC(=O)c2cccc(O)c2C)CC(F)(F)C1(C)C` [Example C19, (S)-4,4-Difluoro-1-((2S,3S)-2-hydroxy-3-{[1-(3-hydroxy-2-methyl-phenyl)-methanoyl]-amino}-4-phenyl-butanoyl)-3,3-dimethyl-pyrrolidine-2-carboxylic acid propylamide], the Ki in experiment [1] was < 0.1 nM. The EC50 is 55 nM in experiment [2] (setting [4]) and 84 nM in experiment [3].

The values above are taken from patent publication US7094909B2, “HIV protease inhibitors, compositions containing the same, their pharmaceutical uses and materials for their synthesis” (priority 2001, dated 2006).
